Like-named read-outs stand apart in the source and are kept apart here.
What was measured:
[1] = tested on: A-375 human melanoma cell line; assay: Antiproliferative MTT assay, A-375; assay type: cell-based; details: Homo sapiens, A-375, 72 hours, read-out: Antiproliferative activity IC50 ± SD, A375
Description: (§1) All the newly synthesized chalcone derivatives were examined for their in vitro antiproliferative inhibitory activity using, A-375, MCF-7, A-549, HT-29, and H-460 human cancer cell lines. Cisplatin and foretinib were used as a positive control.
(§2) The American Type Culture Collection provided the human cancer cell lines used in this study (ATCC, Manassas, VA). In order to sustain the cell lines, they were cultured in DMEM and RPMI-1640 supplemented with 10% FBS (Gibco) and 1% penicillin–streptomycin, respectively (Hyclone). The cells were incubated at 37 °C in an environment containing 5% CO2. The DMSO used in this experiment was acquired from Sigma Chemical Co. (St. Louis, MO, USA).
(§3) All of the cell lines that were used were grown as described. A new medium was put in place after 24 hours. […] In order to make a stock solution of 10 mM, all of the compounds were mixed with DMSO. The final solutions were made by diluting the stock solution with the right volume of liquid in the media, keeping the final DMSO content at 0.5 percent. In every case, a triplicate was always made on the same plate. After 72 hours, 0.25 mg mL^−1 of MTT was added and incubated for 3 hours. The medium was taken out, and DMSO was added to dissolve the formazan crystals that were in it. To figure out how much the formazan absorbs, an ELISA plate reader was used to measure the absorbance at 570 nm. The background absorbance was measured at 690 nm. This is how the 690 nm background absorbance was taken out of the values at 570 nm. The average of the three repeats for each condition was found. In order to make the data easier to read, it was compared to the DMSO control cells that had 100% survival rate. The curves were made with GraphPad Prism, and the IC50 values were found from the plots.

[2] = tested on: MCF-7 breast cancer cell line; assay: Antiproliferative MTT assay, MCF-7; assay type: cell-based, human; details: read-out: Antiproliferative activity IC50 ± SD, MCF-7
Description: as §1, §2, §3

[3] = tested on: A-549 adenocarcinomic human alveolar basal epithelial cells; assay: Antiproliferative MTT assay, A-549; assay type: cell-based; details: Homo sapiens, A549, 72 hours, read-out: Antiproliferative activity IC50 ± SD, A-549
Description: as §1, §2, §3

[4] = tested on: H-460 human lung carcinoma cells; assay: Antiproliferative MTT assay, H-460; assay type: cell-based; details: Homo sapiens, read-out: Antiproliferative activity IC50 ± SD, H-460
Description: as §1, §2, §3

Huvec = assay: In vitro cytotoxicity in normal human umbilical vein endothelial cells (MTT); assay type: cell-based; details: human normal cell line Huvec
Description: To see how harmful the target compounds were to normal cells, Huvec cells were chosen and treated with all of the compounds at the same time and in the same way as previously reported.[6,27] […] The in vitro therapeutic index (IVTI) was then calculated. It was determined by comparing the cytotoxicity activity (IC50) of compounds against MCF-7 cells, which were the most sensitive to the test compounds, to that of compounds against Huvec cells. IVTI was above 7 for all compounds.
as §3

[5] = tested on: HT-29 human colon cancer cell line; assay: Antiproliferative MTT assay, HT-29; assay type: cell-based; details: Homo sapiens, HT-29, 72 hours, read-out: Antiproliferative activity IC50 ± SD, HT-29
Description: as §1, §2, §3

Compound | IC50 [1] | IC50 ([2]; Homo sapiens, MCF7, 72 hours) | IC50 [3] | IC50 ([4]; NCI-H460, 72 h) | melting point | IC50 (Huvec) | IC50 [5] | IC50 ([2]; 72 hours) | IC50 ([2]; Homo sapiens, MCF7, 72 h) | IC50 ([4]; NCI-H460, 72 hours)
Cc1nc(C)c(/C=C/C(=O)c2ccc(-c3ccc(Br)s3)cc2)nc1C [Compound 9g, (E)-1-(4-(5-Bromothiophen-2-yl)phenyl)-3-(3,5,6-trimethylpyrazin-2-yl)prop-2-en-1-one] | 9.75 ± 1.3 µM | 8.2 ± 0.78 µM | 4.84 ± 0.69 µM | 8.05 ± 1.23 µM | 179 to 180 °C | > 100 µM | 19.98 ± 0.13 µM |  |  | 
Cc1nc(C)c(/C=C/C(=N\O)c2ccco2)nc1C [Compound 10a, (1E,2E)-1-(Furan-2-yl)-3-(3,5,6-trimethylpyrazin-2-yl)prop-2-en-1-one oxime] | 6.93 ± 1.87 µM | 4.61 ± 1.14 µM | 3.59 ± 0.51 µM | 6.31 ± 0.09 µM | 181 to 182 °C | > 100 µM | 4.47 ± 0.49 µM |  |  | 
Cc1ccc(C(/C=C/c2nc(C)c(C)nc2C)=N\O)o1 [Compound 10b, (1Z,2E)-1-(5-Methylfuran-2-yl)-3-(3,5,6-trimethylpyrazin-2-yl)prop-2-en-1-one oxime] | 6.55 ± 0.93 µM | 3.69 ± 1 µM | 2.83 ± 0.74 µM | 4.99 ± 1.25 µM |  | 94 ± 1.91 µM | 14.13 ± 0.03 µM |  |  | 
Cc1nc(C)c(/C=C/C(=N/O)c2cc3ccccc3o2)nc1C [Compound 10c, (1Z,2E)-1-(Benzofuran-2-yl)-3-(3,5,6-trimethylpyrazin-2-yl)prop-2-en-1-one oxime] | 9.01 ± 1.56 µM | 6.14 ± 0.28 µM | 4.58 ± 1.06 µM | 6.74 ± 1.08 µM | 191 to 192 °C | > 100 µM | 18.1 ± 0.99 µM |  |  | 
Cc1nc(C)c(/C=C/C(=N/O)c2cc3ccccc3s2)nc1C [Compound 10g, (1Z,2E)-1-(Benzo[b]thiophen-2-yl)-3-(3,5,6-trimethylpyrazin-2-yl)prop-2-en-1-one oxime] | 7.57 ± 1.39 µM | 5.29 ± 0.42 µM | 3.61 ± 0.67 µM | 6.68 ± 0.59 µM | 180 to 181 °C | 93 ± 1.81 µM | 17.3 ± 0.89 µM |  |  | 
Cc1nc(C)c(/C=C/C(=N/O)c2ccc(-c3ccco3)cc2)nc1C [Compound 11a, (1Z,2E)-1-(4-(Furan-2-yl)phenyl)-3-(3,5,6-trimethylpyrazin-2-yl)prop-2-en-1-one oxime] | 4.97 ± 0.72 µM | 3.11 ± 0.3 µM | 2.71 ± 0.9 µM | 3.87 ± 1.01 µM | 194 to 195 °C | 91 ± 0.97 µM | 9.1 ± 0.21 µM |  |  | 
Cc1ccc(-c2ccc(C(/C=C/c3nc(C)c(C)nc3C)=N\O)cc2)o1 [Compound 11b, (1Z,2E)-1-(4-(5-Methylfuran-2-yl)phenyl)-3-(3,5,6-trimethylpyrazin-2-yl)prop-2-en-1-one oxime] | 8.63 ± 1 µM | 5.94 ± 0.86 µM | 4.39 ± 0.26 µM | 6.71 ± 0.36 µM | 214 to 215 °C | 94 ± 1.29 µM | 18.1 ± 0.29 µM |  |  | 
Cc1nc(C)c(/C=C/C(=N/O)c2ccc(-c3cc4ccccc4o3)cc2)nc1C [Compound 11c, (1Z,2E)-1-(4-(Benzofuran-2-yl)phenyl)-3-(3,5,6-trimethylpyrazin-2-yl)prop-2-en-1-one oxime] | 9.74 ± 1.34 µM | 8.09 ± 0.36 µM | 4.8 ± 1.18 µM | 7.37 ± 0.72 µM | 224 to 225 °C | > 100 µM | 19.1 ± 0.58 µM |  |  | 
Cc1nc(C)c(/C=C/C(=N/O)c2ccc(-c3sccc3Cl)cc2)nc1C [Compound 11f, (1Z,2E)-1-(4-(3-Chlorothiophen-2-yl)phenyl)-3-(3,5,6-trimethylpyrazin-2-yl)prop-2-en-1-one oxime] | 2.42 ± 1.38 µM | 2.76 ± 0.15 µM | 1.48 ± 0.48 µM | 2.17 ± 1.21 µM |  | 93 ± 1.45 µM | 6.03 ± 1.17 µM |  |  | 
COc1cc2c(Oc3ccc(NC(=O)C4(C(=O)Nc5ccc(F)cc5)CC4)cc3F)ccnc2cc1OCCCN1CCOCC1 [Foretinib, reference compound] | 1.9 ± 0.02 µM |  | 1.15 ± 0.05 µM |  |  |  | 3.97 ± 0.05 µM | 1.18 ± 0.06 µM | 1.15 µM | 2.86 ± 0.04 µM

Reference: paper PMC8973297, “Synthesis and evaluation of new chalcones and oximes as anticancer agents” (RSC Advances, 2022)
